This note sets out measurements from publication PMC6149664, “Synthesis and In Vitro Antimycobacterial Activity of Novel N-Arylpiperazines Containing an Ethane-1,2-diyl Connecting Chain” (Molecules : A Journal of Synthetic Chemistry and Natural …, 2017).

The subject of series [1] is human monocytic leukemia THP-1 cell line. In words: In vitro cytotoxicity screening, LDH assay. The following applies: 24 h.
The test system of series [2] is M. kansasii 6 509/96 clinical isolate. In words: In vitro antimycobacterial MIC, dilution-micromethod in Šula semisynthetic medium. It counts as cell-based. Particulars: Mycobacterium kansasii, read-out: MIC, MK 6 509/96.
The subject of series [3] is M. avium hominissuis CIT10/08. Kind of series: In vitro antimycobacterial MIC (IC90), alamarBlue 96-well assay in Middlebrook broth. It counts as cell-based, Mycobacterium avium hominissuis. The following applies: Mycobacterium avium, 168 h, 7 days incubation, read-out: MIC, MAH CIT10/08. (In general: Alamar Blue is a resazurin reagent that responds to reducing activity.)

Series [4] has as its system M. avium intracellulare ATCC 13950. Described as above. The series is classed as cell-based, Mycobacterium avium intracellulare. The following applies: Mycobacterium avium, ATCC13950, 168 h, 7 days incubation, read-out: MIC, MAI ATCC 13950.
Series [5] has as its system M. kansasii CNCTC My 235/80 (identical with ATCC 12478). In words: In vitro antimycobacterial MIC, dilution-micromethod in Šula semisynthetic medium. The series is classed as cell-based, Mycobacterium kansasii. Particulars: Mycobacterium kansasii, read-out: MIC, MK My 235/80.
The format of series [6] is physicochemical. Also on record: key to RM (RP-TLC): RM = log(1/Rf - 1), from Rf in HCl/acetone mobile phase. Here is the method: In the RP-TLC, silica gel plates impregnated by a hand with a variously concentrated silicone oil in heptane (a strong hydrophobic agent) were used as a non-polar stationary phase. Optimal differences in RM values within both homological groups 8a–d and 8e–h were observed if 1% silicone oil in heptane was chosen (Tables 1 and S1 in Supplementary Materials).
The RM values were calculated according to Equation (5) from the Rf parameters observed in a SM mobile phase: hydrochloric acid (c = 1.0 M)/acetone (4:1, v/v):RM = log (1/Rf – 1)(5)
For the experiments, aluminium sheets pre-coated with silica gel 60 F254 (0.25 mm thickness; Merck) were impregnated by a variously concentrated silicone oil in heptane, which ranged from 1% to 5%. The plates were separately spotted with 2 µL of methanolic solutions of each compound (c = 1 mg/mL), starting points were 1 cm from a bottom edge of these plates. The chromatographic plates were developed in glass developing chambers saturated for 30 min by the SM mobile phase. Development was carried out upon 15 cm from a starting line by an ascending technique. After being developed, the plates were dried at room temperature. Detection of zones was performed under iodine vapours/UV light at λ = 254 nm. Each experiment was run in triplicate at 21 °C, the RM values of analytes were calculated separately for each run.
Optimal differences in RM values within both homological groups 8a–d and 8e–h were observed if 1% silicone oil in heptane was chosen. The Rfs were found in a range from 0.19 (8h) to 0.78 (8a; Table 1). All the calculated average RM values were summarized in Table S1 (Supplementary Materials).

Setting [7] is: ATCC12478, 168 h, 7 d cultivation.
[8] abbreviates: ATCC12478, 336 h, 14 d cultivation.
[9] abbreviates: ATCC12478, 504 h, 21 d cultivation.
Setting [10] is: silica gel plates impregnated with 3% silicone oil in heptane.
The mark [11] stands for this setting: silica gel plates impregnated with 5% silicone oil in heptane.

Read-outs that look alike come from different tables or passages of the source.

Turning to `COC(=O)Nc1ccc(C(O)CN2CCN(c3ccccc3F)CC2)cc1.Cl` (centres unmarked) [8e, 1-(2-Hydroxy-2-{4-[(methoxycarbonyl)amino]phenyl}ethyl)-4-(2-fluorophenyl)piperazin-1-ium chloride], the “Effect on proliferation of the THP-1 cells compared to a control” value in series [1] is reported as “increased proliferation”. The MIC is 125 µM in series [2] (168 h, 7 d cultivation); 500 µM in series [2] (336 h, 14 d cultivation); 500 µM in series [2] (504 h, 21 d cultivation); greater than 610 µM in series [3]; greater than 610 µM in series [4]; 125 µM in series [5] (setting [7]). Also, the MIC in series [5] (setting [8]) and in series [5] (setting [9]) was 500 µM in each case. Moreover, the “RM (RP-TLC)” value in series [6] (setting [10]) was 0.19; in series [6] (setting [11]), 0.25.
As to `COC(=O)Nc1cccc(C(O)CN2CCN(c3ccccc3F)CC2)c1.Cl` (centres unmarked) [8a, 1-(2-Hydroxy-2-{3-[(methoxycarbonyl)amino]phenyl}ethyl)-4-(2-fluorophenyl)piperazin-1-ium chloride], the “Effect on proliferation of the THP-1 cells compared to a control” value in series [1] is “increased proliferation”. In addition, the MIC in series [2] (168 h, 7 d cultivation) is 125 µM; in series [2] (336 h, 14 d cultivation), 500 µM; in series [2] (504 h, 21 d cultivation), 500 µM; in series [3], greater than 610 µM; in series [4] it was greater than 610 µM; in series [5] (setting [7]) it was 125 µM. The results for the MIC in series [5] (setting [8]) and in series [5] (setting [9]) were 500 µM and 1000 µM, respectively. Moreover, the “RM (RP-TLC)” value in series [6] (setting [10]) is -0.16; in series [6] (setting [11]) it was -0.05.
For the compound `CCOC(=O)Nc1cccc(C(O)CN2CCN(c3ccccc3F)CC2)c1.Cl` (centres unmarked) [8b, 1-(2-{3-[(Ethoxycarbonyl)amino]phenyl}-2-hydroxyethyl)-4-(2-fluorophenyl)piperazin-1-ium chloride], the MIC was 62.5 µM in series [2] (168 h, 7 d cultivation); 250 µM in series [2] (336 h, 14 d cultivation); 250 µM in series [2] (504 h, 21 d cultivation); greater than 590 µM in series [3]; greater than 590 µM in series [4]; 62.5 µM in series [5] (setting [7]). The MIC in series [5] (setting [8]) and in series [5] (setting [9]) was 250 µM in each case. Besides, the “RM (RP-TLC)” value in series [6] (setting [10]) is -0.03; in series [6] (setting [11]), 0.11.
For the compound `CCOC(=O)Nc1ccc(C(O)CN2CCN(c3ccccc3F)CC2)cc1.Cl` (centres unmarked) [8f, 1-(2-{4-[(Ethoxycarbonyl)amino]phenyl}-2-hydroxyethyl)-4-(2-fluorophenyl)piperazin-1-ium chloride], the MIC in series [2] (168 h) is 62.5 µM; in series [2] (336 h, 14 d cultivation), greater than 125 µM; in series [2] (504 h, 21 d cultivation), greater than 125 µM; in series [3], greater than 590 µM; in series [4], greater than 590 µM; in series [5] (setting [7]) it was 125 µM. Also, the MIC in series [5] (setting [8]) and in series [5] (setting [9]) was greater than 250 µM each time. For the same compound, in series [6], the “RM, lipophilicity index (RP-TLC)” value came out at 0.19. Moreover, the entries for the “RM (RP-TLC)” value in series [6] (setting [10]) and in series [6] (setting [11]) were 0.31 and 0.41, respectively.
As for `CCCCOC(=O)Nc1ccc(C(O)CN2CCN(c3ccccc3F)CC2)cc1.Cl` (centres unmarked) [8h, 1-(2-{4-[(Butoxycarbonyl)amino]phenyl}-2-hydroxyethyl)-4-(2-fluorophenyl)piperazin-1-ium chloride], the MIC is 125 µM in series [2] (168 h, 7 d cultivation); greater than 250 µM in series [2] (336 h, 14 d cultivation); greater than 250 µM in series [2] (504 h, 21 d cultivation); greater than 553 µM in series [3]; greater than 553 µM in series [4]; 62.5 µM in series [5] (setting [7]). The MIC in series [5] (setting [8]) and in series [5] (setting [9]) was greater than 125 µM throughout. Further, the “RM, lipophilicity index (RP-TLC)” value in series [6] was found to be 0.63. Moreover, the “RM (RP-TLC)” value in series [6] (setting [10]) and in series [6] (setting [11]) was 0.83 each time.
As to `CCCOC(=O)Nc1cccc(C(O)CN2CCN(c3ccccc3F)CC2)c1.Cl` (centres unmarked) [8c, 1-(2-Hydroxy-2-{3-[(propoxycarbonyl)amino]phenyl}ethyl)-4-(2-fluorophenyl)piperazin-1-ium chloride], the MIC was 32 µM in series [2] (168 h, 7 d cultivation); 125 µM in series [2] (336 h, 14 d cultivation); 125 µM in series [2] (504 h, 21 d cultivation); greater than 571 µM in series [3]; greater than 571 µM in series [4]; 62.5 µM in series [5] (ATCC12478, 168 h). Further, the MIC in series [5] (setting [8]) and in series [5] (setting [9]) was 125 µM in each case. Further, the “RM (RP-TLC)” value amounted to 0.42 in series [6] (setting [10]) and 0.44 in series [6] (setting [11]).
With `CCCOC(=O)Nc1ccc(C(O)CN2CCN(c3ccccc3F)CC2)cc1.Cl` (centres unmarked) [8g, 1-(2-Hydroxy-2-{4-[(propoxycarbonyl)amino]phenyl}ethyl)-4-(2-fluorophenyl)piperazin-1-ium chloride], the MIC is 125 µM in series [2] (168 h, 7 d cultivation); greater than 250 µM in series [2] (336 h, 14 d cultivation); greater than 250 µM in series [2] (504 h, 21 d cultivation); greater than 571 µM in series [3]; greater than 71 µM in series [4]; 125 µM in series [5] (setting [7]). The MIC in series [5] (setting [8]) and in series [5] (setting [9]) was greater than 250 µM in each case. In series [6], the “RM, lipophilicity index (RP-TLC)” value is 0.39. For the same compound, the “RM (RP-TLC)” value in series [6] (setting [10]) was determined as 0.58; in series [6] (setting [11]), 0.55.
`CCCCOC(=O)Nc1cccc(C(O)CN2CCN(c3ccccc3F)CC2)c1.Cl` (centres unmarked) [8d, 1-(2-{3-[(Butoxycarbonyl)amino]phenyl}-2-hydroxyethyl)-4-(2-fluorophenyl)piperazin-1-ium chloride]: the “Relative survival rate of the THP-1 cells” value in series [1] (highest tested concentration of 30 μM) is given as 79%. The MIC in series [2] (168 h, 7 d cultivation) was 16 µM; in series [2] (336 h, 14 d cultivation), 32 µM; in series [2] (504 h, 21 d cultivation), 62.5 µM; in series [3], greater than 553 µM; in series [4] it was greater than 553 µM; in series [5] (setting [7]) it was 32 µM. Moreover, the MIC in series [5] (setting [8]) and in series [5] (setting [9]) was 62.5 µM in each case. In addition, in series [6], the “RM, lipophilicity index (RP-TLC)” value is 0.01. The “RM (RP-TLC)” value in series [6] (setting [11]) is recorded as 0.64.
